Measurements published in ChEMBL document CHEMBL1201862, “PubChem BioAssay data set” (2004).
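1) Cells in 96-well plates. 2) Compound, 48 h, 5 concentrations. 3) Linear interpolation between surrounding doses. 4) Unreached endpoint = highest concentration. GI50 = concentration required for 50% inhibition of growth.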 Activity calls are given as the source filed them. No stated cut-off is given here; in the data, active = GI50 up to about 1.1 µM and inactive = higher.

Experiments:
Experiment in all cases: inhibition of tumour cell growth, NCI panel, 48 h
786-0 = tested on: 786-0
A498 = tested on: A498
A549 = tested on: A549
ACHN = tested on: ACHN
CAKI-1 = tested on: CAKI-1
CCRF-CEM = tested on: CCRF-CEM
COLO 205 = tested on: COLO 205
DLD-1 = tested on: DLD-1
DMS-114 = tested on: DMS-114
DMS-273 = tested on: DMS-273
EKVX = tested on: EKVX
HCC 2998 = tested on: HCC 2998
HCT-116 = tested on: HCT-116
HCT-15 = tested on: HCT-15
HL-60 = tested on: HL-60
HOP-18 = tested on: HOP-18
HOP-62 = tested on: HOP-62
HOP-92 = tested on: HOP-92
HT-29 = tested on: HT-29
IGROV-1 = tested on: IGROV-1
K562 = tested on: K562
KM-20L2 = tested on: KM-20L2
KM12 = tested on: KM12
LOX IMVI = tested on: LOX IMVI
LXFL 529 = tested on: LXFL 529
M14 = tested on: M14
M19-MEL = tested on: M19-MEL
MOLT-4 = tested on: MOLT-4
Malme-3M = tested on: Malme-3M
NCI-H226 = tested on: NCI-H226
NCI-H23 = tested on: NCI-H23
NCI-H460 = tested on: NCI-H460
NCI-H522 = tested on: NCI-H522
OVCAR-3 = tested on: OVCAR-3
OVCAR-4 = tested on: OVCAR-4
OVCAR-5 = tested on: OVCAR-5
OVCAR-8 = tested on: OVCAR-8
RPMI-8226 = tested on: RPMI-8226
RXF 631 = tested on: RXF 631
SF-268 = tested on: SF-268
SF-295 = tested on: SF-295
SF-539 = tested on: SF-539
SK-MEL-28 = tested on: SK-MEL-28
SK-MEL-2 = tested on: SK-MEL-2
SK-MEL-5 = tested on: SK-MEL-5
SK-OV-3 = tested on: SK-OV-3
SN12C = tested on: SN12C
SNB-19 = tested on: SNB-19
SNB-75 = tested on: SNB-75
SNB-78 = tested on: SNB-78
SR = tested on: SR
SW-620 = tested on: SW-620
TK-10 = tested on: TK-10
U-251 = tested on: U-251
UACC-257 = tested on: UACC-257
UACC-62 = tested on: UACC-62
UO-31 = tested on: UO-31
XF498 = tested on: XF498
RXF 393 = tested on: RXF 393

Measured: GI50

Cc1csc2nc(-c3ccncc3)cn12
inactive: 786-0 15.8 µM | A498 > 100 µM | A549 > 100 µM | ACHN > 100 µM | CAKI-1 > 100 µM | CCRF-CEM > 42.1 µM | COLO 205 > 45.5 µM | DLD-1 > 63.1 µM | DMS-114 > 42.1 µM | DMS-273 19.7 µM | EKVX > 59.7 µM | HCC 2998 > 100 µM | HCT-116 > 42.2 µM | HL-60 > 36.3 µM | HOP-18 > 57.9 µM | HOP-62 > 100 µM | HOP-92 > 100 µM | HT-29 > 100 µM | IGROV-1 > 100 µM | K562 > 44 µM | KM-20L2 > 65 µM | KM12 > 100 µM | LOX IMVI > 43.4 µM | LXFL 529 > 51.3 µM | M14 > 68.2 µM | M19-MEL > 59.6 µM | MOLT-4 > 100 µM | Malme-3M > 100 µM | NCI-H226 > 100 µM | NCI-H23 > 100 µM | NCI-H460 > 43.5 µM | NCI-H522 > 82.2 µM | OVCAR-3 > 100 µM | OVCAR-4 > 49.4 µM | OVCAR-5 > 100 µM | OVCAR-8 > 100 µM | RPMI-8226 > 45.1 µM | RXF 631 > 88.3 µM | SF-268 > 69.7 µM | SF-295 > 100 µM | SF-539 > 44 µM | SK-MEL-28 > 100 µM | SK-MEL-2 > 100 µM | SK-MEL-5 > 100 µM | SK-OV-3 > 100 µM | SN12C > 100 µM | SNB-19 > 100 µM | SNB-75 > 100 µM | SNB-78 > 100 µM | SR 24.3 µM | SW-620 > 21.1 µM | TK-10 > 100 µM | U-251 > 46.9 µM | UACC-257 > 100 µM | UACC-62 > 100 µM | UO-31 > 100 µM | XF498 > 100 µM
> 40.9 µM: HCT-15

CCOC(=O)/C=C(\C)c1ccc(Cl)cc1
inactive: A498 > 100 µM | A549 > 100 µM | ACHN > 100 µM | CAKI-1 > 100 µM | CCRF-CEM > 100 µM | COLO 205 > 100 µM | DLD-1 > 100 µM | DMS-114 > 100 µM | DMS-273 > 100 µM | EKVX > 100 µM | HCC 2998 > 100 µM | HCT-116 > 100 µM | HL-60 > 100 µM | HOP-18 > 100 µM | HOP-92 > 100 µM | HT-29 > 100 µM | IGROV-1 > 100 µM | K562 > 100 µM | KM-20L2 > 100 µM | KM12 > 100 µM | LOX IMVI > 100 µM | LXFL 529 > 100 µM | M14 > 100 µM | MOLT-4 > 100 µM | Malme-3M > 100 µM | NCI-H226 54.8 µM | NCI-H23 > 100 µM | NCI-H460 > 100 µM | OVCAR-4 > 100 µM | OVCAR-5 > 100 µM | OVCAR-8 > 100 µM | RPMI-8226 > 100 µM | RXF 393 > 100 µM | RXF 631 > 100 µM | SF-268 > 100 µM | SF-295 > 100 µM | SF-539 > 100 µM | SK-MEL-28 > 100 µM | SK-MEL-2 > 100 µM | SN12C > 100 µM | SNB-19 > 100 µM | SNB-75 > 100 µM | SNB-78 > 100 µM | SR > 100 µM | SW-620 > 100 µM | TK-10 > 100 µM | U-251 > 100 µM | UACC-257 > 100 µM | UO-31 > 100 µM | XF498 > 100 µM
> 100 µM: HCT-15

Brc1ccc2ns[s+]c2c1
0.343 µM: HCT-15
active: ACHN 0.897 µM | K562 0.321 µM | KM-20L2 0.933 µM | LOX IMVI 0.659 µM | LXFL 529 0.404 µM | M14 0.45 µM | UACC-62 0.446 µM
inactive: 786-0 98.2 µM | A498 > 100 µM | A549 3.6 µM | CAKI-1 2.49 µM | CCRF-CEM 1.26 µM | COLO 205 4.91 µM | DMS-114 3.14 µM | DMS-273 1.95 µM | EKVX 13 µM | HCC 2998 5.25 µM | HCT-116 2.7 µM | HL-60 2.59 µM | HOP-18 > 47 µM | HOP-62 5.05 µM | HOP-92 6.73 µM | HT-29 1.3 µM | IGROV-1 26.7 µM | KM12 3.79 µM | M19-MEL 6.24 µM | MOLT-4 4.65 µM | Malme-3M 33.5 µM | NCI-H226 > 26.3 µM | NCI-H23 20.9 µM | NCI-H460 3.3 µM | NCI-H522 4.79 µM | OVCAR-3 29.1 µM | OVCAR-4 > 20.9 µM | OVCAR-8 > 43.9 µM | RPMI-8226 4.71 µM | RXF 393 > 100 µM | RXF 631 5.06 µM | SF-268 2.58 µM | SF-295 4.46 µM | SF-539 4.29 µM | SK-MEL-28 11.9 µM | SK-MEL-2 6.75 µM | SK-OV-3 > 100 µM | SN12C 14 µM | SNB-19 29.9 µM | SNB-75 > 60 µM | SNB-78 > 31.6 µM | SR 4.36 µM | SW-620 8.63 µM | TK-10 5.28 µM | U-251 16 µM | UACC-257 14.9 µM | UO-31 4.36 µM | XF498 > 100 µM
